ChEMBL document CHEMBL1201862, “PubChem BioAssay data set” (2004)
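1) Cells in 96-well plates. 2) Compound, 48 h, 5 concentrations. 3) Linear interpolation between surrounding doses. 4) Unreached endpoint = highest concentration. Abbreviation: GI50, concentration required for 50% inhibition of growth.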 Activity calls are given as the source filed them. Cut-off read from the data, not from the text of the source: active = GI50 up to about 1.1 µM and inactive = higher.

Key:
Test in all cases: NCI tumour cell line growth inhibition, 48 h
786-0 = system: 786-0
A549 = system: A549
CCRF-CEM = system: CCRF-CEM
COLO 205 = system: COLO 205
K562 = system: K562
KM12 = system: KM12
M14 = system: M14
MCF7 = system: MCF7
MDA-MB-231 = system: MDA-MB-231
MDA-MB-435 = system: MDA-MB-435
Malme-3M = system: Malme-3M
NCI-H522 = system: NCI-H522
OVCAR-4 = system: OVCAR-4
RPMI-8226 = system: RPMI-8226
RXF 393 = system: RXF 393
SF-539 = system: SF-539
SK-MEL-2 = system: SK-MEL-2
SNB-75 = system: SNB-75
TK-10 = system: TK-10
UO-31 = system: UO-31

Measured: GI50

C[N+]1([O-])[C@H]2CC(OC(=O)[C@H](CO)c3ccccc3)C[C@H]1[C@H]1O[C@H]12 (some centres undefined)
inactive: 786-0 > 100 µM | A549 > 100 µM | CCRF-CEM 21.2 µM | COLO 205 > 100 µM | K562 > 100 µM | KM12 > 100 µM | M14 > 100 µM | MCF7 > 100 µM | MDA-MB-231 > 100 µM | MDA-MB-435 > 100 µM | Malme-3M > 100 µM | NCI-H522 > 100 µM | OVCAR-4 > 100 µM | RPMI-8226 > 100 µM | RXF 393 > 100 µM | SF-539 > 100 µM | SK-MEL-2 > 100 µM | SNB-75 > 100 µM | TK-10 > 100 µM | UO-31 > 100 µM

CCOC(=O)C1(Cc2c[nH]c3ccccc23)C(O)CCCN1C(C)=O (centres undefined)
inactive: 786-0 > 100 µM | A549 > 100 µM | CCRF-CEM > 100 µM | COLO 205 > 100 µM | K562 > 100 µM | KM12 > 100 µM | M14 > 100 µM | MCF7 > 100 µM | MDA-MB-231 > 100 µM | MDA-MB-435 > 100 µM | Malme-3M > 100 µM | OVCAR-4 > 100 µM | RPMI-8226 > 100 µM | RXF 393 > 100 µM | SF-539 > 100 µM | SK-MEL-2 > 100 µM | SNB-75 > 100 µM | TK-10 > 100 µM | UO-31 > 100 µM

Cc1cc2cc3c(O)nc(O)nc3nc2cc1C
inactive: 786-0 > 100 µM | A549 > 100 µM | COLO 205 > 100 µM | K562 > 100 µM | KM12 > 100 µM | M14 > 100 µM | MCF7 > 100 µM | MDA-MB-231 > 100 µM | MDA-MB-435 > 100 µM | Malme-3M > 100 µM | NCI-H522 > 100 µM | OVCAR-4 > 100 µM | RPMI-8226 > 100 µM | RXF 393 52.2 µM | SF-539 > 100 µM | SK-MEL-2 > 100 µM | SNB-75 27.6 µM | TK-10 > 100 µM | UO-31 > 100 µM

Cc1c(Cl)c(S(N)(=O)=O)cc2c1N=CNS2(=O)=O
inactive: 786-0 > 100 µM | A549 > 100 µM | CCRF-CEM > 100 µM | COLO 205 > 100 µM | K562 > 100 µM | KM12 > 100 µM | M14 > 100 µM | MCF7 > 100 µM | MDA-MB-231 > 100 µM | MDA-MB-435 > 100 µM | Malme-3M > 100 µM | NCI-H522 > 100 µM | OVCAR-4 > 100 µM | RPMI-8226 > 100 µM | RXF 393 > 100 µM | SNB-75 > 100 µM | TK-10 > 100 µM | UO-31 > 100 µM

Cc1nc(Cl)c2sc(=S)n(-c3ccc(F)cc3)c2n1
inactive: 786-0 2.45 µM | A549 12.8 µM | CCRF-CEM 2.72 µM | COLO 205 4.47 µM | K562 7.6 µM | KM12 12.7 µM | M14 2.11 µM | MCF7 2.84 µM | MDA-MB-231 7.98 µM | MDA-MB-435 2.59 µM | Malme-3M 10.6 µM | NCI-H522 2.84 µM | OVCAR-4 13.6 µM | RPMI-8226 3.4 µM | RXF 393 7.85 µM | SK-MEL-2 12.8 µM | SNB-75 1.44 µM | TK-10 1.99 µM | UO-31 1.69 µM

O=C(NC(C(F)(F)F)(C(F)(F)F)P(=O)(Cc1ccccc1)Cc1ccccc1)C(C(F)(F)F)C(F)(F)F
inactive: 786-0 17.2 µM | A549 25.9 µM | CCRF-CEM 29.6 µM | COLO 205 18.4 µM | K562 23 µM | KM12 19.5 µM | M14 18.4 µM | MCF7 12.2 µM | MDA-MB-231 19.8 µM | MDA-MB-435 17.4 µM | Malme-3M 19.1 µM | NCI-H522 26.2 µM | RPMI-8226 25.2 µM | RXF 393 21 µM | SF-539 20.7 µM | SK-MEL-2 26.4 µM | TK-10 21.8 µM

CCCCP(CCCC)(CCCC)=C(C(=O)OC)C(C(=O)OC)=C1SC(C(=O)OC)=C(C(=O)OC)S1
inactive: 786-0 17.8 µM | A549 17.6 µM | COLO 205 17 µM | M14 15.2 µM | MCF7 16.8 µM | MDA-MB-231 17.9 µM | MDA-MB-435 14.8 µM | Malme-3M 18.2 µM | NCI-H522 17.7 µM | OVCAR-4 16.2 µM | RPMI-8226 63.2 µM | RXF 393 10.3 µM | SK-MEL-2 26.2 µM | SNB-75 17.5 µM | TK-10 38.6 µM | UO-31 20.3 µM

Cc1c(-c2ccccc2)c(C#N)c2nnn(-c3cccc(Cl)c3)c(=O)n12
inactive: 786-0 28.6 µM | CCRF-CEM 28.1 µM | COLO 205 44.4 µM | K562 50.5 µM | KM12 55.8 µM | MCF7 43.9 µM | MDA-MB-231 25.1 µM | MDA-MB-435 > 100 µM | Malme-3M 87.5 µM | NCI-H522 47.8 µM | OVCAR-4 76.2 µM | RPMI-8226 42.5 µM | RXF 393 31.2 µM | SF-539 32.9 µM | SK-MEL-2 27.7 µM | SNB-75 31.2 µM | TK-10 > 100 µM

CC1CC(=O)Nc2ccccc2N1C(=O)C1CC1 (centres undefined)
inactive: 786-0 > 100 µM | A549 > 100 µM | CCRF-CEM > 100 µM | COLO 205 > 100 µM | K562 > 100 µM | KM12 > 100 µM | M14 > 100 µM | MCF7 > 100 µM | MDA-MB-231 > 100 µM | MDA-MB-435 > 100 µM | Malme-3M > 100 µM | NCI-H522 > 100 µM | OVCAR-4 > 100 µM | RPMI-8226 > 100 µM | RXF 393 > 100 µM | SF-539 > 100 µM | SK-MEL-2 > 100 µM | TK-10 > 100 µM | UO-31 > 100 µM

COc1ccc(/C=N/NC(=O)O)cc1
inactive: 786-0 > 100 µM | A549 > 100 µM | COLO 205 > 100 µM | K562 > 100 µM | KM12 > 100 µM | M14 > 100 µM | MCF7 > 100 µM | MDA-MB-231 > 100 µM | MDA-MB-435 > 100 µM | Malme-3M > 100 µM | NCI-H522 > 100 µM | OVCAR-4 > 100 µM | RPMI-8226 > 100 µM | RXF 393 > 100 µM | SF-539 > 100 µM | SK-MEL-2 > 100 µM | SNB-75 > 100 µM | TK-10 > 100 µM | UO-31 > 100 µM

NC1CC(=O)c2c(Br)csc21 (centres undefined)
inactive: 786-0 82 µM | A549 > 100 µM | CCRF-CEM 42.7 µM | COLO 205 58.1 µM | K562 50.1 µM | KM12 32.1 µM | M14 > 100 µM | MCF7 49 µM | MDA-MB-231 > 100 µM | MDA-MB-435 21.2 µM | Malme-3M 46.8 µM | RPMI-8226 38.5 µM | RXF 393 54.7 µM | SF-539 35.6 µM | SK-MEL-2 41 µM | SNB-75 96.2 µM | TK-10 32.5 µM | UO-31 33 µM

C[C@H]1CC[C@@H]2[C@@H](C)[C@H]3[C@H](C[C@H]4[C@@H]5CC=C6C[C@@H](O)CC[C@]6(C)[C@H]5CC[C@]34C)N2C1
inactive: 786-0 30.4 µM | A549 > 100 µM | CCRF-CEM 32.5 µM | COLO 205 16.3 µM | KM12 30.3 µM | M14 74 µM | MCF7 38.5 µM | MDA-MB-231 39.4 µM | MDA-MB-435 89.7 µM | Malme-3M > 100 µM | NCI-H522 42.6 µM | OVCAR-4 32.4 µM | RPMI-8226 26.3 µM | RXF 393 19.4 µM | SF-539 65.9 µM | SK-MEL-2 > 100 µM | TK-10 33 µM | UO-31 60.5 µM

O=P1(N(CCCl)CCCl)Oc2c(Cl)cc(Cl)c(Cl)c2Cc2c(Cl)c(Cl)cc(Cl)c2O1
inactive: 786-0 90.4 µM | A549 38.5 µM | CCRF-CEM 29.2 µM | COLO 205 22.5 µM | K562 74 µM | KM12 42 µM | M14 75.3 µM | MCF7 64.7 µM | MDA-MB-231 42.4 µM | MDA-MB-435 60.5 µM | NCI-H522 31 µM | OVCAR-4 26.7 µM | RPMI-8226 64.3 µM | RXF 393 > 100 µM | SF-539 > 100 µM | SK-MEL-2 22 µM | SNB-75 > 100 µM | TK-10 25 µM | UO-31 48.4 µM

COc1cc(Oc2nc3ccc(C(F)(F)F)cc3nc2-c2ccccc2)cc(OC)c1OC
inactive: 786-0 3.21 µM | A549 17.1 µM | CCRF-CEM 48.5 µM | COLO 205 15.2 µM | K562 40.5 µM | KM12 66.2 µM | MCF7 8.18 µM | MDA-MB-231 23 µM | MDA-MB-435 30.4 µM | Malme-3M 87.9 µM | NCI-H522 25.1 µM | OVCAR-4 6.58 µM | RPMI-8226 36.8 µM | RXF 393 11 µM | SF-539 19.7 µM | SNB-75 8.75 µM | TK-10 30.1 µM | UO-31 > 100 µM

Fc1cccc(C2SCC3=Nc4ccccc4CN32)c1 (centres undefined)
inactive: 786-0 37.8 µM | A549 59.6 µM | CCRF-CEM 29.9 µM | COLO 205 28.4 µM | K562 88.9 µM | KM12 95.5 µM | M14 33.3 µM | MCF7 35.4 µM | MDA-MB-231 > 100 µM | MDA-MB-435 33 µM | OVCAR-4 95.7 µM | RPMI-8226 36.8 µM | RXF 393 26.8 µM | SF-539 47.5 µM | SK-MEL-2 13.4 µM | SNB-75 > 100 µM | TK-10 67.8 µM | UO-31 41.5 µM
